Laboratory results reported in ChEMBL document CHEMBL4229333, “Effects of rigidity on the selectivity of protein kinase inhibitors” (Eur J Med Chem, 2018).
Active and inactive are the calls of the source. No cut-off for these calls is given here.

Legend:
[1] = biological target: Serine/threonine-protein kinase B-raf (Homo sapiens, UniProt P15056, V600E); assay: Inhibition of BRAF V600E mutant (unknown origin) after 20 mins by immunoblotting assay
[2] = biological target: T1, Tyrosine-protein kinase ABL1 (Homo sapiens, UniProt P00519); assay: Inhibition of ABL (unknown origin) by phosphocellulose paper disk assay
[3] = biological target: T1, Tyrosine-protein kinase ABL1; assay: Inhibition of ABL (unknown origin) at 30 nM by phosphocellulose paper disk assay
Bcr/Abl fusion protein = Bcr/Abl fusion protein (Homo sapiens, UniProt P00519); assay: Inhibition of BCR-ABL (unknown origin) expressed in mouse BA/F3 cells assessed as reduction in ABL phosphorylation at Y412 residue incubated for 3 hrs by immunoblotting assay; format: cell-based
[4] = system: Serine/threonine-protein kinase B-raf (Homo sapiens), P15056 [V600E]; assay: Inhibition of BRAF V600E mutant in human A375 cells assessed as decrease in MEK phosphorylation up to 100 uM after 1 hr by immunoblotting assay; format: cell-based
Chain of Serine/threonine-protein kinase B-raf (Homo sapiens), P15056 [V600E] (P15056 whole entry V600E): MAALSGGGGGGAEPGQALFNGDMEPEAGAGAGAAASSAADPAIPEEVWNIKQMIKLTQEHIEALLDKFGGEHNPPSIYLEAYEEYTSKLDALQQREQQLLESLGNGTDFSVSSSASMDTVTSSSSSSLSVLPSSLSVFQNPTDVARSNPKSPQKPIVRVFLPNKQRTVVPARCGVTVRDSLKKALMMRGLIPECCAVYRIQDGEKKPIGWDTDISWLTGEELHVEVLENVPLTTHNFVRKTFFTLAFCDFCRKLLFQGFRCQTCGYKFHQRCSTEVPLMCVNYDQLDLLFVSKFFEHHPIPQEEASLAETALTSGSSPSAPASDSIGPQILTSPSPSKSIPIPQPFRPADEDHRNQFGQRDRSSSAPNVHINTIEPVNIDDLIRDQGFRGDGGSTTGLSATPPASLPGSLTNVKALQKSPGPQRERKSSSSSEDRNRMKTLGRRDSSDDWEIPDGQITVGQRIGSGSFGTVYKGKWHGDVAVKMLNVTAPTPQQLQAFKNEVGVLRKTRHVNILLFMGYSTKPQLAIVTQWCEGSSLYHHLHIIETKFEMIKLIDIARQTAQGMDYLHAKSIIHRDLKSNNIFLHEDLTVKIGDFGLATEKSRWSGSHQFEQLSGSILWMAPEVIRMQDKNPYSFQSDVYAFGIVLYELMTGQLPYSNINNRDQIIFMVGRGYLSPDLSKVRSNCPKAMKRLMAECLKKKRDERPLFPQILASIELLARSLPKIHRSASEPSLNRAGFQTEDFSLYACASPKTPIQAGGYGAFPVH

Chain of Serine/threonine-protein kinase B-raf (P15056 2-766 V600E limits assumed): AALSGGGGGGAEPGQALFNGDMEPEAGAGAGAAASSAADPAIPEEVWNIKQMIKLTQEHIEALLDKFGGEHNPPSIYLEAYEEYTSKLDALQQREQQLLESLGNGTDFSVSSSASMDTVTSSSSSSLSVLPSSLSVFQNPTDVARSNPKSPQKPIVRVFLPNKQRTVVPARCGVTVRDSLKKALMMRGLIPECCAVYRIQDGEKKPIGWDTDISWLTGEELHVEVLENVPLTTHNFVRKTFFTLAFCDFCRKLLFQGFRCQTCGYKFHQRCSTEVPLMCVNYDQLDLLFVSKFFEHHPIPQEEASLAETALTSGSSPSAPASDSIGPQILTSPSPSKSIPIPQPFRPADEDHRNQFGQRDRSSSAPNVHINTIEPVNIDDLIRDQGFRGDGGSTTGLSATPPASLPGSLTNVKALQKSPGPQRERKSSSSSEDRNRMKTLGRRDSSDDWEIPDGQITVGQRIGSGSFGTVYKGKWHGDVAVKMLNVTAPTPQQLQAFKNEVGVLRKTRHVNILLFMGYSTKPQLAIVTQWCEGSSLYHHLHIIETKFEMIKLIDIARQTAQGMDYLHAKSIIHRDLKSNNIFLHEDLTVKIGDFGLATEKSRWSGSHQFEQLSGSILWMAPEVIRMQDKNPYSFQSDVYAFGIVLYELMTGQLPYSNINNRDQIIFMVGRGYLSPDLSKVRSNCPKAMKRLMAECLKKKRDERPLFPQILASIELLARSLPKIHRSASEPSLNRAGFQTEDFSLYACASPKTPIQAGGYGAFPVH
T1 sequence (P00519 whole entry): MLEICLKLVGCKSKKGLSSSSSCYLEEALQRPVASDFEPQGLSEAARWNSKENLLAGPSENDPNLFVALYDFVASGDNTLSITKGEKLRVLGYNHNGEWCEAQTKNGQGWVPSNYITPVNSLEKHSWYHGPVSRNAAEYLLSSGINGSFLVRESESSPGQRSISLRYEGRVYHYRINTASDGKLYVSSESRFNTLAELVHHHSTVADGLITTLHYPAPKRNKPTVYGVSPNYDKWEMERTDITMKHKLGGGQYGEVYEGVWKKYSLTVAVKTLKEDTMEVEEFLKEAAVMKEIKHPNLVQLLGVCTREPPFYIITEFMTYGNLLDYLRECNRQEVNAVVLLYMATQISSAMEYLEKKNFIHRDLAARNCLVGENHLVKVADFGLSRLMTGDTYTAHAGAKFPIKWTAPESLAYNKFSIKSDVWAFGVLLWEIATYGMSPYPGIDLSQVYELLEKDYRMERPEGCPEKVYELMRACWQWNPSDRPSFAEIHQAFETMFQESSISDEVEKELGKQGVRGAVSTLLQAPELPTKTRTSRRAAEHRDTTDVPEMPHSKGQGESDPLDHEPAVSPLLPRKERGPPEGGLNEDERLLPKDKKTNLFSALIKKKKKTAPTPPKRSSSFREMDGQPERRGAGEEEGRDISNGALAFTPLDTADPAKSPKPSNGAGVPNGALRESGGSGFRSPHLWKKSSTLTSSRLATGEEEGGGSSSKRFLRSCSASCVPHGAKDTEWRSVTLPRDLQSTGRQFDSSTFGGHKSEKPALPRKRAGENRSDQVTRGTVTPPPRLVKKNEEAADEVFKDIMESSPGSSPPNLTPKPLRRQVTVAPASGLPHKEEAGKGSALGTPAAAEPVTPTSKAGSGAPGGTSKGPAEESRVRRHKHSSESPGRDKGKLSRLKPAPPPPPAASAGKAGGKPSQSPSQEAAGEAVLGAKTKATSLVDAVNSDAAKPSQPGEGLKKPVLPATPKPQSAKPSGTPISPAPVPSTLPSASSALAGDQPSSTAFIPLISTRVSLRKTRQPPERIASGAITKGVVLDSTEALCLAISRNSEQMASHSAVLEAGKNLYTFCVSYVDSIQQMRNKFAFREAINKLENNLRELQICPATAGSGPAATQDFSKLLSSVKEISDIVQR
Chain of Bcr/Abl fusion protein (P00519 whole entry, the tested form may be a part): as the sequence (P00519 whole entry) above
Chain of Bcr/Abl fusion protein (P11274 whole entry, further chain, the tested form may be a part): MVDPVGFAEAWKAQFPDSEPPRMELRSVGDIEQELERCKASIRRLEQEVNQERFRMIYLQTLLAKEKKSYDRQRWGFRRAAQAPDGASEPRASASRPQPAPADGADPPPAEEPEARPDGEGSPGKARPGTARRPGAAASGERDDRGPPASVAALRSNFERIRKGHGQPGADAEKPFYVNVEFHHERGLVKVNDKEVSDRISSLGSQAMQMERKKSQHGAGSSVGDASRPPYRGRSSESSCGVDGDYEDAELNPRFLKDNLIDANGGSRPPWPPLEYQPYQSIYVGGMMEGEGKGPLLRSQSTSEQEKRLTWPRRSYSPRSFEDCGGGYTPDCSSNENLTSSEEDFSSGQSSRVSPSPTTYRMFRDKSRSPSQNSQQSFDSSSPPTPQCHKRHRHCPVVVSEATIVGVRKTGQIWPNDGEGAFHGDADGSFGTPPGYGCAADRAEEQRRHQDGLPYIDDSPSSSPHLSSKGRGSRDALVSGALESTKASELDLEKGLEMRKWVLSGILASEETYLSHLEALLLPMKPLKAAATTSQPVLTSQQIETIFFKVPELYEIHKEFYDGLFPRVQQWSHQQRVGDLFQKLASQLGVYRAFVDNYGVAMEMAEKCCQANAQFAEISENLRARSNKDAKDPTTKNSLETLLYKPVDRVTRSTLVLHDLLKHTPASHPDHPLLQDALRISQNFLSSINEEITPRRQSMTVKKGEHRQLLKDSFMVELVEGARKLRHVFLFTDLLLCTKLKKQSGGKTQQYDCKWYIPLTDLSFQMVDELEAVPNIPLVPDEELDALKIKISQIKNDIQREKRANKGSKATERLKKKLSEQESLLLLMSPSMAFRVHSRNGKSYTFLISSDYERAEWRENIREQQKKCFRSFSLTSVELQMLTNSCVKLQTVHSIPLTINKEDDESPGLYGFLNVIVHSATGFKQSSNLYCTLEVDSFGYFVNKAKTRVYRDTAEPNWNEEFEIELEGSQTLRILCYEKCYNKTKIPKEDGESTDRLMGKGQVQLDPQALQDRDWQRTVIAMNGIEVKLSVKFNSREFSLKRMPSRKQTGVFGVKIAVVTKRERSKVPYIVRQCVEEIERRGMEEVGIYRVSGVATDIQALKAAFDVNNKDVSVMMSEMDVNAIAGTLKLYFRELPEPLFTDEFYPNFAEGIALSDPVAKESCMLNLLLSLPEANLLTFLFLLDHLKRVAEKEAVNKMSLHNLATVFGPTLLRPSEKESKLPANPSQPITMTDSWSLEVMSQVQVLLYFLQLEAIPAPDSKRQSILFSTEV

| Compound | IC50 [1] [nM] | IC50 [2] [nM] | inhibition [3] | IC50 (Bcr/Abl fusion protein) [nM] | inhibition [4] |
| --- | --- | --- | --- | --- | --- |
| CC(C)n1nc(C#Cc2cccc3cc(-c4ccc(Cl)c(C(F)(F)F)c4)ncc23)c2c(N)ncnc21 | 87 | 22 | inactive | – | – |
| CC(C)n1nc(C#Cc2cccc3cc(-c4ccc(Cl)cc4)ncc23)c2c(N)ncnc21 | 46 | – | – | – | – |
| CC(C)n1nc(C#Cc2cccc3cc(-c4ccc(CN5CCN(C)CC5)cc4)ncc23)c2c(N)ncnc21 | 51 | 7 | inactive | 211 | – |
| CCn1nc(C#Cc2cccc3cc(-c4cccc(C(F)(F)F)c4)ncc23)c2c(N)ncnc21 | 13 | 3.5 | inactive | – | inactive |
| Cc1ccc2cc(-c3cccc(C(F)(F)F)c3)ncc2c1C#Cc1nn(C(C)C)c2ncnc(N)c12 | 44 | 10 | inactive | – | – |
| Cc1ccc(-c2cc3cccc(C#Cc4nn(C(C)C)c5ncnc(N)c45)c3cn2)cc1 | 24 | – | – | – | – |
